Reference: patent EP4011353A1 (Beiersdorf AG, priority 2020, dated 2022)

Columns and labels:
Assay type in all cases: physicochemical
[1] = degradation of ascorbic acid after addition of water or ethanol to the eutectic liquid; conditions: addition of water or ethanol up to 15%, preferably up to 10%
From the text: This liquid, stable at room temperature, can be incorporated into cosmetic formulas.

[2] = color stability of vitamin C in closed and open glass flasks after 3 months at room temperature (figure 2)
[3] = degradation of vitamin C at 40°C over 16 weeks, eutectic solvent compared to water (figure 1); conditions: 5 % vitamin C in eutectic solvent (5% vitamin C, 40% betaine, 55% glycerol) compared to water, 40 degrees

O=C1O[C@H]([C@@H](O)CO)C(O)=C1O [vitamin C, ascorbic acid]
degradation of the ascorbic acid [1]: without increased degradation | stability of vitamin C ([2]; 21% vitamin C in water, closed bottles): unstable | stability of vitamin C ([2]; 21% vitamin C in water, opened glass bottles): unstable | stability of vitamin C ([2]; in betaine and glycerol (21% vitamin C, 29% betaine, 50% glycerin), closed bottles): stable | degradation of vitamin C [3]: enhanced protection
